Measurements reported in ChEMBL document CHEMBL4507256 (2021).

Tests used:
[1] = molecular target: BDNF/NT-3 growth factors receptor (Homo sapiens) (UniProt Q16620); conditions: Compound concentration 1000.0 nM
[2] = molecular target: Myotonin-protein kinase (Homo sapiens) (UniProt Q09013); conditions: Compound concentration 1000.0 nM
[3] = tested on: Receptor-type tyrosine-protein kinase FLT3 (Homo sapiens), P36888 [D835H]; conditions: Compound concentration 1000.0 nM
[4] = molecular target: Glycogen synthase kinase-3 alpha (Homo sapiens) (UniProt P49840); conditions: Compound concentration 1000.0 nM
[5] = molecular target: Serine/threonine-protein kinase Nek2 (Homo sapiens) (UniProt P51955); conditions: Compound concentration 1000.0 nM
[6] = molecular target: Homeodomain-interacting protein kinase 1 (Homo sapiens) (UniProt Q86Z02); conditions: Compound concentration 1000.0 nM
[7] = molecular target: Dual specificity tyrosine-phosphorylation-regulated kinase 1B (Homo sapiens) (UniProt Q9Y463); conditions: Compound concentration 1000.0 nM
[8] = molecular target: Serine/threonine-protein kinase WNK4 (Homo sapiens) (UniProt Q96J92); conditions: Compound concentration 1000.0 nM
[9] = molecular target: Phosphatidylinositol 4,5-bisphosphate 3-kinase catalytic subunit delta isoform (Homo sapiens) (UniProt O00329); conditions: Compound concentration 1000.0 nM
[10] = molecular target: Hepatocyte growth factor receptor (Homo sapiens) (UniProt P08581); conditions: Compound concentration 1000.0 nM
[11] = molecular target: Mitogen-activated protein kinase 10 (Homo sapiens) (UniProt P53779); conditions: Compound concentration 1000.0 nM
[12] = molecular target: Ephrin type-B receptor 2 (Homo sapiens) (UniProt P29323); conditions: Compound concentration 1000.0 nM
[13] = tested on: Tyrosine-protein kinase ABL1 (Homo sapiens), P00519 [F317I]; conditions: Compound concentration 1000.0 nM
[14] = molecular target: Death-associated protein kinase 2 (Homo sapiens) (UniProt Q9UIK4); conditions: Compound concentration 1000.0 nM
[15] = tested on: Phosphatidylinositol 4,5-bisphosphate 3-kinase catalytic subunit alpha isoform (Homo sapiens), P42336 [C420R]; conditions: Compound concentration 1000.0 nM
[16] = molecular target: Calcium/calmodulin-dependent protein kinase type II subunit beta (Homo sapiens) (UniProt Q13554); conditions: Compound concentration 1000.0 nM
[17] = tested on: Phosphatidylinositol 4,5-bisphosphate 3-kinase catalytic subunit alpha isoform (Homo sapiens), P42336 [H1047L]; conditions: Compound concentration 1000.0 nM
[18] = molecular target: Serine/threonine-protein kinase tousled-like 2 (Homo sapiens) (UniProt Q86UE8); conditions: Compound concentration 1000.0 nM
[19] = molecular target: Phosphatidylinositol 5-phosphate 4-kinase type-2 gamma (Homo sapiens) (UniProt Q8TBX8); conditions: Compound concentration 1000.0 nM
[20] = molecular target: Casein kinase I isoform epsilon (Homo sapiens) (UniProt P49674); conditions: Compound concentration 1000.0 nM
[21] = molecular target: SRSF protein kinase 1 (Homo sapiens) (UniProt Q96SB4); conditions: Compound concentration 1000.0 nM
[22] = molecular target: Tyrosine-protein kinase CSK (Homo sapiens) (UniProt P41240); conditions: Compound concentration 1000.0 nM
[23] = molecular target: Maternal embryonic leucine zipper kinase (Homo sapiens) (UniProt Q14680); conditions: Compound concentration 1000.0 nM
[24] = tested on: ALK tyrosine kinase receptor (Homo sapiens), Q9UM73 [C1156Y]; conditions: Compound concentration 1000.0 nM
[25] = tested on: Tyrosine-protein kinase ABL1 (Homo sapiens), P00519 [H396P]; conditions: Compound concentration 1000.0 nM
[26] = molecular target: Tyrosine-protein kinase ZAP-70 (Homo sapiens) (UniProt P43403); conditions: Compound concentration 1000.0 nM
[27] = molecular target: Protein-tyrosine kinase 2-beta (Homo sapiens) (UniProt Q14289); conditions: Compound concentration 1000.0 nM
[28] = molecular target: Serine/threonine-protein kinase SBK1 (Homo sapiens) (UniProt Q52WX2); conditions: Compound concentration 1000.0 nM
[29] = molecular target: Serine/threonine-protein kinase Nek7 (Homo sapiens) (UniProt Q8TDX7); conditions: Compound concentration 1000.0 nM
[30] = molecular target: Interleukin-1 receptor-associated kinase 4 (Homo sapiens) (UniProt Q9NWZ3); conditions: Compound concentration 1000.0 nM
[31] = molecular target: T1, 5-hydroxytryptamine receptor 3A (Homo sapiens) (UniProt P46098); conditions: Compound concentration 10.0 uM
T1 sequence (whole entry): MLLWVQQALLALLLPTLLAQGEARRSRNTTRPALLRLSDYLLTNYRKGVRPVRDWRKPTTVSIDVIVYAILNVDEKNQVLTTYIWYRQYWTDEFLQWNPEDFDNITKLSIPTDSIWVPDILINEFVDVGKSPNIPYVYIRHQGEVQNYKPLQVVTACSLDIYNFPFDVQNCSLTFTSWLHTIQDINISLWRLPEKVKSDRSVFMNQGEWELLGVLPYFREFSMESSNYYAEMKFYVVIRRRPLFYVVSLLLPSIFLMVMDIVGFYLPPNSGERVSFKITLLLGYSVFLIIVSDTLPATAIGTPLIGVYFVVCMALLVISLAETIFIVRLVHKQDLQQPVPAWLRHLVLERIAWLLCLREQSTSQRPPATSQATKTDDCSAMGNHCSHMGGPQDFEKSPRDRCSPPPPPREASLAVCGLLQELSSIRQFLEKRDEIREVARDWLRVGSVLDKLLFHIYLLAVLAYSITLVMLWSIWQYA

[32] = molecular target: MAP/microtubule affinity-regulating kinase 4 (Homo sapiens) (UniProt Q96L34); conditions: Compound concentration 1000.0 nM
[33] = molecular target: Mitogen-activated protein kinase 13 (Homo sapiens) (UniProt O15264); conditions: Compound concentration 1000.0 nM
[34] = tested on: Tyrosine-protein kinase ABL1 (Homo sapiens), P00519 [F317L]; conditions: Compound concentration 1000.0 nM
[35] = molecular target: Tyrosine-protein kinase JAK1 (Homo sapiens) (UniProt P23458); conditions: Compound concentration 1000.0 nM
[36] = molecular target: Cyclin-dependent kinase 18 (Homo sapiens) (UniProt Q07002); conditions: Compound concentration 1000.0 nM
[37] = molecular target: Protein kinase C delta type (Homo sapiens) (UniProt Q05655); conditions: Compound concentration 1000.0 nM
[38] = molecular target: Ephrin type-A receptor 3 (Homo sapiens) (UniProt P29320); conditions: Compound concentration 1000.0 nM
[39] = molecular target: Muscarinic acetylcholine receptor M3 (Homo sapiens) (UniProt P20309); conditions: Compound concentration 10.0 uM

Sequence of Serine/threonine-protein kinase Nek7 (Homo sapiens) (Q8TDX7 whole entry, looked up): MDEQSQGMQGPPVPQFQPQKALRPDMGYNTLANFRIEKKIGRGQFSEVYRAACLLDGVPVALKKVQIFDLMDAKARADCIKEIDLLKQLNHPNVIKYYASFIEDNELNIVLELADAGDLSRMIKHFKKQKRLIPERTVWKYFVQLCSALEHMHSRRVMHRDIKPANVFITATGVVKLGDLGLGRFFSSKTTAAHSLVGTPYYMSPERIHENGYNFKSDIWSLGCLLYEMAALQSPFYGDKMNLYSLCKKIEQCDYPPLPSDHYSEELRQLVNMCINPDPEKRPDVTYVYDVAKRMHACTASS
Sequence of Tyrosine-protein kinase CSK (Homo sapiens) (P41240 2-450 limits assumed): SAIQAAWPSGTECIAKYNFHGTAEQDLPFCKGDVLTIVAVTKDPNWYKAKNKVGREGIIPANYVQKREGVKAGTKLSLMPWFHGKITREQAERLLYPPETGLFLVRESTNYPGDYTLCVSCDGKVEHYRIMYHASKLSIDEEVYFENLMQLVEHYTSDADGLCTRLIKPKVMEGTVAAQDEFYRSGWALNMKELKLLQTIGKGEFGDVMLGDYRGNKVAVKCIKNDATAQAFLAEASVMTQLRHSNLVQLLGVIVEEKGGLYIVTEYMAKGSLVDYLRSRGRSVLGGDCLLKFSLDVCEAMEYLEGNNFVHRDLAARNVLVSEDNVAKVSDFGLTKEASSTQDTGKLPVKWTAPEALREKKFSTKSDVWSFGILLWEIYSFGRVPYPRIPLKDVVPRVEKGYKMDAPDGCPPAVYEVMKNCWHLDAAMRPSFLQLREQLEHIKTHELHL
Sequence of Glycogen synthase kinase-3 alpha (Homo sapiens) (P49840 2-483 limits assumed): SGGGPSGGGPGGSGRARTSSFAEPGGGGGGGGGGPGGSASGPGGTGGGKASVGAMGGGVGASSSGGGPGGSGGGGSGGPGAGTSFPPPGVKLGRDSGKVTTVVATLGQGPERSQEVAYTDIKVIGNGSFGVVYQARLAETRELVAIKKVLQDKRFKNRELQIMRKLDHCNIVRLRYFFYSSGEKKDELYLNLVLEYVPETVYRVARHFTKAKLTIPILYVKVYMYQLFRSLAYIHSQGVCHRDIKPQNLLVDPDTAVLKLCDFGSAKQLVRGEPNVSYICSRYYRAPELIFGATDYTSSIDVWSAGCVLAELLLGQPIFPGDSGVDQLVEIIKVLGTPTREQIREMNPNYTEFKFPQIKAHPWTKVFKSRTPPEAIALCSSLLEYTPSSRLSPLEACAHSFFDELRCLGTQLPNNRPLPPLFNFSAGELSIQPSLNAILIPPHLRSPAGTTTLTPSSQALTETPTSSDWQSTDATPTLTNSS
Sequence of Hepatocyte growth factor receptor (Homo sapiens) (P08581 whole entry): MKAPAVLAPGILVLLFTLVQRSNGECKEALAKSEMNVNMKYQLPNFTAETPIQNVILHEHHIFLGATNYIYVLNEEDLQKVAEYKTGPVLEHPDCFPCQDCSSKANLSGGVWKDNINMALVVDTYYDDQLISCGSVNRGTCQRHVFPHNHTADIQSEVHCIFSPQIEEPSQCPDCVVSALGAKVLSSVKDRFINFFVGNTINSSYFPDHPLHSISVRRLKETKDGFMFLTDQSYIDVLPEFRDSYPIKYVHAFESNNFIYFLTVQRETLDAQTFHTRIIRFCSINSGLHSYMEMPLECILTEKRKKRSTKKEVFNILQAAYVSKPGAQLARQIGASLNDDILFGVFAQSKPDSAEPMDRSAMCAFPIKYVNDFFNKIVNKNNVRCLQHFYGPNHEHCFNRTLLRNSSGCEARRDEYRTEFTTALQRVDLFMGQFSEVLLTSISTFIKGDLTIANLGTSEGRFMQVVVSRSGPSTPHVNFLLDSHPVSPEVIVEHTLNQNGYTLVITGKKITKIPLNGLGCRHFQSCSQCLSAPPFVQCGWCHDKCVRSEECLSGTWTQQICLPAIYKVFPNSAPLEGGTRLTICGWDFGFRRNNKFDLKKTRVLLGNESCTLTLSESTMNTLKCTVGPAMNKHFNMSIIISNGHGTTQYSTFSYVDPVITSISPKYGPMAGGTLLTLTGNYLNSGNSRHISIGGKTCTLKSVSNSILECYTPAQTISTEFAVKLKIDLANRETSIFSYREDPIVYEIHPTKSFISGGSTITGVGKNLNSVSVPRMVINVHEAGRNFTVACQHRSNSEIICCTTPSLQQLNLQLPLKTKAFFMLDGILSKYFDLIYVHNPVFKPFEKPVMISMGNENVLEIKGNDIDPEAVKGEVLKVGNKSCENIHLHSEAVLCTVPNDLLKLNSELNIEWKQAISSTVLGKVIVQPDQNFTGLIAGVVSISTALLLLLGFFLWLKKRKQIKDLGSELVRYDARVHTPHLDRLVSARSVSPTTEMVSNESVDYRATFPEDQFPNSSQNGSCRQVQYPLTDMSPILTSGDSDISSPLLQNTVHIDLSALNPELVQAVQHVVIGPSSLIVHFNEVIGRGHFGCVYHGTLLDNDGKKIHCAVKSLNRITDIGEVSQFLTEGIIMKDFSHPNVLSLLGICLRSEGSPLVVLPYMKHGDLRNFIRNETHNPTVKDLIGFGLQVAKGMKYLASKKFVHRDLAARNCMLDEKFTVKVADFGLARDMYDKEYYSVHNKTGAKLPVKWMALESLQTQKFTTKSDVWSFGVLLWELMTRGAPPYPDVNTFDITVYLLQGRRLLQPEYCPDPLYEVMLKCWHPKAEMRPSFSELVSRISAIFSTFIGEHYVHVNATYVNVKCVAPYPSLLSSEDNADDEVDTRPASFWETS
Sequence of ALK tyrosine kinase receptor (Homo sapiens), Q9UM73 [C1156Y] (Q9UM73 whole entry C1156Y, looked up): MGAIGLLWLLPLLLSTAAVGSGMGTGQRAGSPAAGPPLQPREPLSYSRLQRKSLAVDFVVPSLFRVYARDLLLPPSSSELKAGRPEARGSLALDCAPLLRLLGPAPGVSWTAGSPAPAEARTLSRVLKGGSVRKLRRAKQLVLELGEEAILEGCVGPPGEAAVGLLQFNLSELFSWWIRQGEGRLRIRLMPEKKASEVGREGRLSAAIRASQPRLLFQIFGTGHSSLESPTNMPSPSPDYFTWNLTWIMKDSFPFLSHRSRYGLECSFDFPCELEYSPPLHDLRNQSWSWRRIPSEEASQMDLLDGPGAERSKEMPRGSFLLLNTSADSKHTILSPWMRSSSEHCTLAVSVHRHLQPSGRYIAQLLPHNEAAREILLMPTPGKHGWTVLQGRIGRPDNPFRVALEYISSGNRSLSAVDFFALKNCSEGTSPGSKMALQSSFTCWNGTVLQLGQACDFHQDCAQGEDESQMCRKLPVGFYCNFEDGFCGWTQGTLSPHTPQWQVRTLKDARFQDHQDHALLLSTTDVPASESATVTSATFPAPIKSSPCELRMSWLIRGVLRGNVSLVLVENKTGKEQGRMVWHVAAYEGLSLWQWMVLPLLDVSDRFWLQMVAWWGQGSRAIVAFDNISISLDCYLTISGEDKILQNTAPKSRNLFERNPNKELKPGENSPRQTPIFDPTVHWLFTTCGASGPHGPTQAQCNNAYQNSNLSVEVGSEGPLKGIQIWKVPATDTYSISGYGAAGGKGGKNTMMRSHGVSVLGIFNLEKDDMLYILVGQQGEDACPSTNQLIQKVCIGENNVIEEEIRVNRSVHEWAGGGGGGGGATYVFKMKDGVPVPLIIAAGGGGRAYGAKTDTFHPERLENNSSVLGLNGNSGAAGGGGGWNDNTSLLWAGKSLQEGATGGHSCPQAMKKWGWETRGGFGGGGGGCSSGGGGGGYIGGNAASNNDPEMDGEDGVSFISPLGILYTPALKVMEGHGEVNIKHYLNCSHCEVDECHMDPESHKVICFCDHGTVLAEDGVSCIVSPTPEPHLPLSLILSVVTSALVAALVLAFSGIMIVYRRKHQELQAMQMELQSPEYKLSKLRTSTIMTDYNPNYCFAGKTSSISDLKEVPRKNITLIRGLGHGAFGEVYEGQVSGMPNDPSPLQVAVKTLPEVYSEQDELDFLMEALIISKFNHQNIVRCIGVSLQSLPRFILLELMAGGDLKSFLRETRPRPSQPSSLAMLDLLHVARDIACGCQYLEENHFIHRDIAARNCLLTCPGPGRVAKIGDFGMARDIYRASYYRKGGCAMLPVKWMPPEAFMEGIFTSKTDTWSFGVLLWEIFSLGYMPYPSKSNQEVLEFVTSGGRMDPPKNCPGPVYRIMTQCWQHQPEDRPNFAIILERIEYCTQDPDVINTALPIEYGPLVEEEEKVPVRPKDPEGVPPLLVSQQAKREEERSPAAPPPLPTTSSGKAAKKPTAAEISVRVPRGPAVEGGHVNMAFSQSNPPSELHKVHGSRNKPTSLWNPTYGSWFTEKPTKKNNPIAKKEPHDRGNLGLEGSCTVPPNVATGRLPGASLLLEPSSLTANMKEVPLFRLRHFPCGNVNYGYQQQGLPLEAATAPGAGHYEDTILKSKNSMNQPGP
Sequence of Protein kinase C delta type (Homo sapiens) (Q05655 whole entry, looked up): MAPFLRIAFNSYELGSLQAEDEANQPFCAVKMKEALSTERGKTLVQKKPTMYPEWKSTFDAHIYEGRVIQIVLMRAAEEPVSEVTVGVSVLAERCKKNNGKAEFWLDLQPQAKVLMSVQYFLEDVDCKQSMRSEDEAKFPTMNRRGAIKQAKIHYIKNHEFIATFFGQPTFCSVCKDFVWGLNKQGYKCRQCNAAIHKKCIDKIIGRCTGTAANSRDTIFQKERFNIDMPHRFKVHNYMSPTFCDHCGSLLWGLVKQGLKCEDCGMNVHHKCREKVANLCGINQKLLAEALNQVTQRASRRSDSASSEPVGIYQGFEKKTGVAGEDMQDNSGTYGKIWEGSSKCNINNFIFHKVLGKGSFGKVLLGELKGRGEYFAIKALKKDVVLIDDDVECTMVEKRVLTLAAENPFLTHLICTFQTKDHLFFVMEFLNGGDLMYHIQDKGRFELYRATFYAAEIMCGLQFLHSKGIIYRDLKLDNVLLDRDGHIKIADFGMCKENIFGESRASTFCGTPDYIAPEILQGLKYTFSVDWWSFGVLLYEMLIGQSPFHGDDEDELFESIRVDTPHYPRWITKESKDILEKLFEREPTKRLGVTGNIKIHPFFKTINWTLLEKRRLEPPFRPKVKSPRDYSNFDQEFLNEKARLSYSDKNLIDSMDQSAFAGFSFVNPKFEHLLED

Which residual activity [1] does the source give for CCC(=N\O)/C(C)=C/c1ccc(F)cc1 [A-079] here?
Its residual activity is 66%.

What about the residual activity [2] of the same compound?
The residual activity was 88%.

And the residual activity [3]?
Its residual activity is 100%.

What about the residual activity [4] of the same compound?
Its residual activity is 100%.

What about the residual activity [5] of the same compound?
The residual activity was 100%.

And the residual activity [6]?
The residual activity was 80%.

What about the residual activity [7] of the same compound?
The residual activity was 57%.

And the residual activity [8]?
Its residual activity is 100%.

What about the residual activity [9] of the same compound?
Its residual activity is 72%.

And the residual activity [10]?
Its residual activity is 88%.

What about the residual activity [11] of the same compound?
The residual activity was 100%.

What about the residual activity [12] of the same compound?
Its residual activity is 76%.

And the residual activity [13]?
Its residual activity is 100%.

What about the residual activity [14] of the same compound?
The residual activity was 97%.

And the residual activity [15]?
Its residual activity is 79%.

And the residual activity [16]?
Its residual activity is 97%.

What about the residual activity [17] of the same compound?
Its residual activity is 100%.

What about the residual activity [18] of the same compound?
Its residual activity is 100%.

What about the residual activity [19] of the same compound?
The residual activity was 83%.

And the residual activity [20]?
The residual activity was 99%.

And the residual activity [21]?
The residual activity was 100%.

And the residual activity [22]?
Its residual activity is 100%.

And the residual activity [23]?
The residual activity was 96%.

And the residual activity [24]?
The residual activity was 77%.

What about the residual activity [25] of the same compound?
The residual activity was 100%.

What about the residual activity [26] of the same compound?
The residual activity was 96%.

What about the residual activity [27] of the same compound?
The residual activity was 99%.

What about the residual activity [28] of the same compound?
The residual activity was 100%.

And the residual activity [29]?
The residual activity was 85%.

What about the residual activity [30] of the same compound?
Its residual activity is 100%.

What about the inhibition [31] of the same compound?
The inhibition was -4.62%.

What about the residual activity [32] of the same compound?
The residual activity was 100%.

What about the residual activity [33] of the same compound?
Its residual activity is 92%.

And the residual activity [34]?
Its residual activity is 81%.

And the residual activity [35]?
Its residual activity is 96%.

What about the residual activity [36] of the same compound?
Its residual activity is 89%.

And the residual activity [37]?
The residual activity was 100%.

And the residual activity [38]?
Its residual activity is 100%.

And the inhibition [39]?
The inhibition was -6.83%.

Which residual activity [1] does the source give for CCC(=N\O)/C(C)=C/c1ccc(F)c(C)c1 [A-226] here?
The residual activity was 100%.

What about the residual activity [2] of the same compound?
The residual activity was 72%.

What about the residual activity [3] of the same compound?
The residual activity was 89%.

What about the residual activity [4] of the same compound?
The residual activity was 100%.

And the residual activity [5]?
The residual activity was 100%.

And the residual activity [6]?
The residual activity was 97%.

What about the residual activity [7] of the same compound?
The residual activity was 100%.

And the residual activity [8]?
Its residual activity is 78%.

And the residual activity [9]?
The residual activity was 100%.

What about the residual activity [10] of the same compound?
The residual activity was 100%.

And the residual activity [11]?
Its residual activity is 100%.

And the residual activity [12]?
Its residual activity is 99%.

And the residual activity [13]?
Its residual activity is 100%.

And the residual activity [14]?
Its residual activity is 85%.

And the residual activity [15]?
Its residual activity is 100%.

What about the residual activity [16] of the same compound?
The residual activity was 100%.

And the residual activity [17]?
The residual activity was 100%.

What about the residual activity [18] of the same compound?
The residual activity was 100%.

And the residual activity [19]?
The residual activity was 85%.

What about the residual activity [20] of the same compound?
The residual activity was 92%.

What about the residual activity [21] of the same compound?
The residual activity was 100%.

What about the residual activity [22] of the same compound?
Its residual activity is 96%.

And the residual activity [23]?
The residual activity was 100%.

And the residual activity [24]?
Its residual activity is 100%.

And the residual activity [25]?
The residual activity was 100%.

What about the residual activity [26] of the same compound?
Its residual activity is 38%.

And the residual activity [27]?
Its residual activity is 98%.

And the residual activity [28]?
Its residual activity is 100%.

And the residual activity [29]?
Its residual activity is 100%.

And the residual activity [30]?
The residual activity was 95%.

And the inhibition [31]?
Its inhibition is 0.44%.

And the residual activity [32]?
The residual activity was 88%.

What about the residual activity [33] of the same compound?
The residual activity was 100%.

What about the residual activity [34] of the same compound?
The residual activity was 100%.

And the residual activity [35]?
Its residual activity is 100%.

What about the residual activity [36] of the same compound?
Its residual activity is 87%.

And the residual activity [37]?
The residual activity was 98%.

What about the residual activity [38] of the same compound?
The residual activity was 99%.

What about the inhibition [39] of the same compound?
The inhibition was -5.75%.
